Experimental data published in PMC4058377 (Neurochemistry international, 2014).

What was measured:
[1] = molecular target: T1, X7C DAT (Homo sapiens, UniProt Q01959, C135A/C306A/C319M/C342M/C581L/C90A); experiment: [3H]MFZ 2-12 binding, membranes
T1 sequence (Q01959 23-620 C90A/C135A/C306A/C319M/C342M/C581L): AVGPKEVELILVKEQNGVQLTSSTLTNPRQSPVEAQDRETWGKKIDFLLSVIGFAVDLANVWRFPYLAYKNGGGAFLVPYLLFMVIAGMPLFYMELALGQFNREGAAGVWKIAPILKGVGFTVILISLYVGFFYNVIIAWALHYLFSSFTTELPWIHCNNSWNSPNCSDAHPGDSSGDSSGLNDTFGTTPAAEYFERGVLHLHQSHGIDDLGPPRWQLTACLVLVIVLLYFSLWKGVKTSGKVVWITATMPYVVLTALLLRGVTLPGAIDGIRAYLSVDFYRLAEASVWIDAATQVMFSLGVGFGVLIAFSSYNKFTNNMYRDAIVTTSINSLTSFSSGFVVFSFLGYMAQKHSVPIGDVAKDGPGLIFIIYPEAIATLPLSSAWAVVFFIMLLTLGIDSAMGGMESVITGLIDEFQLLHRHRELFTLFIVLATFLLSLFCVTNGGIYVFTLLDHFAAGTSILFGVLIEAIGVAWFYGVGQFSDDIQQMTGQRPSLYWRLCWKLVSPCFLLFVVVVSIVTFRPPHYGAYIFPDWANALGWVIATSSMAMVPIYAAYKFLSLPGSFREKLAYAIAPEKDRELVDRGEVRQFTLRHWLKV

[2] = tested on: DAT Tyr335 to alanine; conditions: ref Loland et al., 2002; cited from earlier work
[3] = molecular target: T2, all the remaining mutants as well as the background construct X7C (Homo sapiens, UniProt Q01959, C135A/C306A/C319M/C342M/C581L/C90A); experiment: Effect of Zn2+ on [3H]tyramine uptake; format: cell-based; conditions: 10 μM Zn^2+, 15 min prior to and during uptake
T2 sequence (Q01959 23-620 C90A/C135A/C306A/C319M/C342M/C581L): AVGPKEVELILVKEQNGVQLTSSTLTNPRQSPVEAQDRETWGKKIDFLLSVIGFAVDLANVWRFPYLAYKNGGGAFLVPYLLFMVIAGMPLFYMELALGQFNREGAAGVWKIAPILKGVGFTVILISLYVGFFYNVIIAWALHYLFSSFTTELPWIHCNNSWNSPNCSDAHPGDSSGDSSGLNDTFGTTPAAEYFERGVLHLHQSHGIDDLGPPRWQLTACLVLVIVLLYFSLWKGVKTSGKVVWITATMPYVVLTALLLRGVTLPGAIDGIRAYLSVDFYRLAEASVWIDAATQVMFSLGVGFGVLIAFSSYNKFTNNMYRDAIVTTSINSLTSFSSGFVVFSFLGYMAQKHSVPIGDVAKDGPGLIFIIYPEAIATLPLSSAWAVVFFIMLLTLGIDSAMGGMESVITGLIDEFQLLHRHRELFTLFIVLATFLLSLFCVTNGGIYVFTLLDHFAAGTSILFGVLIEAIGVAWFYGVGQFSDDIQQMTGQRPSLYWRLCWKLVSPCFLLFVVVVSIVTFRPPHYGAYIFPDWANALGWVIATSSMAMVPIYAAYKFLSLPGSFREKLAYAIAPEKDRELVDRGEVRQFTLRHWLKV

[4] = tested on: WT DAT; conditions: ref Loland et al., 1999, Norregaard et al., 1998; cited from earlier work
[5] = molecular target: T1, X7C DAT
[6] = substrate: NCCc1ccc(O)cc1; experiment: cells, lysate or membranes; conditions: other: X7C; pH 7.4; 37.0 °C

Molecule: COC(=O)[C@H]1[C@@H](c2ccc(Cl)c(Cl)c2)C[C@@H]2CC[C@H]1N2C [MFZ 2-12]
- MFZ 2-12 Bmax ± SEM [1]: 5 ± 2 pmol/mg
- Kd ([1]; read-out: MFZ 2-12 KD ± SEM): 2.2 ± 0.5 nM

Molecule: [Cl-].[Cl-].[Zn+2] [Zn^2+, ZnCl2]
- effect of Zn^2+ on low uptake capacity [2]: substantially restored
- effect of Zn^2+ on tyramine uptake [3]: inhibited uptake
- effect of Zn^2+ on dopamine uptake [4]: inhibits

Molecule: NCCc1ccc(O)cc1 [tyramine]
- Vmax for tyramine uptake [5]: 29 ±8

B1: X7C DAT (Homo sapiens; C135A/C306A/C319M/C342M/C581L/C90A) (protein)
chain: AVGPKEVELILVKEQNGVQLTSSTLTNPRQSPVEAQDRETWGKKIDFLLSVIGFAVDLANVWRFPYLAYKNGGGAFLVPYLLFMVIAGMPLFYMELALGQFNREGAAGVWKIAPILKGVGFTVILISLYVGFFYNVIIAWALHYLFSSFTTELPWIHCNNSWNSPNCSDAHPGDSSGDSSGLNDTFGTTPAAEYFERGVLHLHQSHGIDDLGPPRWQLTACLVLVIVLLYFSLWKGVKTSGKVVWITATMPYVVLTALLLRGVTLPGAIDGIRAYLSVDFYRLAEASVWIDAATQVMFSLGVGFGVLIAFSSYNKFTNNMYRDAIVTTSINSLTSFSSGFVVFSFLGYMAQKHSVPIGDVAKDGPGLIFIIYPEAIATLPLSSAWAVVFFIMLLTLGIDSAMGGMESVITGLIDEFQLLHRHRELFTLFIVLATFLLSLFCVTNGGIYVFTLLDHFAAGTSILFGVLIEAIGVAWFYGVGQFSDDIQQMTGQRPSLYWRLCWKLVSPCFLLFVVVVSIVTFRPPHYGAYIFPDWANALGWVIATSSMAMVPIYAAYKFLSLPGSFREKLAYAIAPEKDRELVDRGEVRQFTLRHWLKV
- Km [6]: 2.6 µM
